Source: patent publication US9458201B2, “Melanocortin receptor-specific heptapeptides” (Palatin Technologies, Inc., priority 2009, dated 2016)
pKi: −log10 of the molar value. Each block holds one molecule with its values, some of them ahead of it. Peptide text beside a SMILES is read from it.

What was measured:
[1] = Rat feeding study: food intake and body weight change; type: in vivo; conditions: for effect on food intake and rate of change in body weight: rat feeding studies, 0.3 and 1 mg/kg, bremelanotide as positive control; for decrease in food consumption compared to control: rat
Experimental: Change in food intake and body weight was evaluated for selected peptides administered by intravenous (IV) or subcutaneous injection routes. Male Sprague-Dawley rats were obtained from Hilltop Lab Animals, Inc. (Scottsdale, Pa.) or other vendors. Animals were individually housed in conventional polystyrene hanging cages and maintained on a controlled 12 hour on/off light cycle. Water and pelleted food was provided ad libitum. The rats were dosed IV with vehicle or selected peptides (0.3 to 1.0 mg/kg), or dosed subcutaneously with vehicle or selected peptides (doses up to 30 mg/kg). The changes in body weight and food intake for the 24 hour period after dosing was determined. The changes in body weight and food intake for the 48 hour and 72 hour periods after dosing can also be measured to determine reversal of changes in body weight and food intake effects back to baseline levels.

hMC4-R [2] = biological target: T1, hMC4-R (Homo sapiens (Human), UniProt P32245); assay: Assay for agonist activity (cAMP accumulation, HEK-293 cells expressing hMC4-R); conditions: agonist = intrinsic activity 70% or higher; partial agonist 10-70%
T1 sequence (P32245 whole entry): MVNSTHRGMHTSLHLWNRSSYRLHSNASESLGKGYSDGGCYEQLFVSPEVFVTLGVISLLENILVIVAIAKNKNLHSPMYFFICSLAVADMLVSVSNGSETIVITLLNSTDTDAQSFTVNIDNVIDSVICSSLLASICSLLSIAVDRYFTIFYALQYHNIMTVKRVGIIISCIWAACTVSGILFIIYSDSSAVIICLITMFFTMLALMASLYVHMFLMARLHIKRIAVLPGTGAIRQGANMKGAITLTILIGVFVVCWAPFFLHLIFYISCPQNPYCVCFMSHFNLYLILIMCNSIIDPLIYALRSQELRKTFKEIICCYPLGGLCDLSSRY
Experimental: By “intrinsic activity” is meant the maximal functional activity achievable by a compound in a specified melanocortin receptor expressing cell system, such as the maximal stimulation of adenylyl cyclase.
Accumulation of intracellular cAMP was examined as a measure of the ability of the peptides of the present invention to elicit a functional response in HEK-293 cells that express MC4-R. Confluent HEK-293 cells that express recombinant hMC4-R were detached from culture plates by incubation in enzyme-free cell dissociation buffer. Dispersed cells were suspended in Earle's Balanced Salt Solution containing 10 mM HEPES (pH 7.5), 1 mM MgCl2, 1 mM glutamine, 0.5% albumin and 0.3 mM 3-isobutyl-1-methyl-xanthine (IBMX), a phosphodiesterase inhibitor. […] Cells were exposed for 15 minutes at 37° C. to peptides of the present invention dissolved in DMSO (final DMSO concentration of 1%) at a concentration range of 0.05-5000 nM in a total assay volume of 200 μL. […] Data analysis was performed by nonlinear regression analysis with Graph-Pad Prism® software. The maximum efficacies of the test peptides of the present invention were compared to that achieved by the reference melanocortin agonist NDP-αMSH.

[3] = Induction of penile erection in male rats; type: in vivo, rat; conditions: for induction of penile erection: male Sprague-Dawley rats, 60 minute observation, No. 154 as trifluoracetic acid salt, No. 155 as acetate salt
From the text: Each dose group contained six or seven animals, with video observation for sixty minutes following administration.

hMC4-R [4] = biological target: T1, hMC4-R; assay: Competitive binding assay using Eu-NDP-α-MSH; conditions: Eu-NDP-α-MSH (values marked *); averaged; read-out: MC4-R Ki
Experimental: Alternatively, a competitive inhibition binding assay was performed employing Eu-NDP-α-MSH (PerkinElmer Life Sciences catalog No. AD0225) with determination by time-resolved fluorometry (TRF) of the lanthanide chelate. […] After incubation for 90 minutes at 37° C., the reaction was stopped by filtration over AcroWell 96-well filter plates (Pall Life Sciences). The filter plates were washed 4 times with 200 μL of ice-cold phosphate-buffered saline. DELFIA Enhancement solution (PerkinElmer Life Sciences) was added to each well. […] Each assay was conducted in duplicate and mean values were utilized. Ki values were determined by curve-fitting with Graph-Pad Prism® software using a one-site fixed-slope competition binding model.

hMC4-R [5] = biological target: T1, hMC4-R; assay: Competitive inhibition binding assay using [I125]-NDP-α-MSH; conditions: [I125]-NDP-α-MSH (unmarked values); averaged; read-out: MC4-R Ki
Experimental: A competitive inhibition binding assay is performed using membrane homogenates prepared from HEK-293 cells that express recombinant hMC4-R, hMC3-R, or hMC5-R, and from B-16 mouse melanoma cells (containing endogenous MC1-R). In some instances, HEK-293 cells that express recombinant hMC1-R were employed. In the examples that follow, all MC3-R, MC4-R and MC5-R values are for human recombinant receptors. […] Membrane homogenates were incubated with 0.2 nM (for hMC4-R) 0.4 nM (for MC3-R and MC5-R) or 0.1 nM (for mouse B16 MC1-R or hMC1-R) [I^125]-NDP-α-MSH (Perkin Elmer) and increasing concentrations of test peptides of the present invention in buffer containing 25 mM HEPES buffer (pH 7.5) with 100 mM NaCl, 2 mM CaCl2, 2 mM MgCl2, 0.3 mM 1,10-phenanthroline, and 0.2% bovine serum albumin. After incubation for 60 minutes at 37° C., the assay mixture was filtered and the membranes washed three times with ice-cold buffer. Filters were dried and counted in a gamma counter for bound radioactivity. […] Maximal specific binding (100%) was defined as the difference in radioactivity (cpm) bound to cell membranes in the absence and presence of 1 μM NDP-α-MSH. […] Each assay was conducted in triplicate and the actual mean values are described, with results less than 0% reported as 0%. Ki values for test peptides of the present invention were determined using Graph-Pad Prism® curve-fitting software.

[6] = 1 mg/kg, 0-2, 0-4 and 0-20 hour periods

functional classification at MC4-R (agonist / partial agonist) (hMC4-R [2]): agonist
Structure (SMILES): CC(=O)N[C@@H](CCCNC(=N)N)C(=O)N[C@H]1CC(=O)NCCCC[C@@H](C(N)=O)NC(=O)[C@H](Cc2c[nH]c3ccccc23)NC(=O)[C@H](CCCNC(=N)N)NC(=O)[C@@H](Cc2ccccc2)NC(=O)[C@H](Cc2c[nH]cn2)NC1=O [Peptide No. 1, Ac-Arg-cyclo(Asp-His-D-Phe-Arg-Trp-Lys)-NH2]
effect on food intake and rate of change in body weight [1]: reduce food intake and decrease the rate of change in body weight | decrease in food consumption compared to control ([1]; 0.3 mg/kg, 0-2, 0-4 and 0-20 hour periods): statistically significant | decrease in food consumption compared to control [1, 6]: statistically significant | observed spontaneous erections compared to vehicle ([3]; rat, IV, doses of 0.3 or 1 mg/kg): statistically significant increase

functional classification at MC4-R (agonist / partial agonist) (hMC4-R [2]): partial agonist
Structure (SMILES): CC(=O)N[C@@H](CCCNC(=N)N)C(=O)N[C@H]1CC(=O)NCCCC[C@@H](C(N)=O)NC(=O)[C@H](Cc2c[nH]c3ccccc23)NC(=O)[C@H](CCCNC(=N)N)NC(=O)[C@@H](Cc2ccccc2)NC(=O)[C@H](C(C)C)NC1=O [Peptide No. 16, Ac-Arg-cyclo(Asp-Val-D-Phe-Arg-Trp-Lys)-NH2]
effect on food intake and rate of change in body weight [1]: reduce food intake and decrease the rate of change in body weight | decrease in food consumption compared to control ([1]; 0.3 mg/kg, 0-2 and 0-4 hour periods): statistically significant | decrease in food consumption compared to control [1, 6]: statistically significant

functional classification at MC4-R (agonist / partial agonist) (hMC4-R [2]): agonist
Structure (SMILES): CC(=O)N[C@@H](CCCNC(=N)N)C(=O)N[C@H]1CC(=O)NCCCC[C@@H](C(N)=O)NC(=O)[C@H](Cc2c[nH]c3ccccc23)NC(=O)[C@H](CCCNC(=N)N)NC(=O)[C@@H](Cc2ccccc2)NC(=O)[C@H](CCC(N)=O)NC1=O [Peptide No. 32, Ac-Arg-cyclo(Asp-Gln-D-Phe-Arg-Trp-Lys)-NH2]
observed spontaneous erections ([3]; rat, subcutaneous, doses of 1, 3 or 10 mg/kg): increase in observed spontaneous erections

pKi (hMC4-R [4]): 6.96
Structure (SMILES): CC(=O)N[C@@H](CCCNC(=N)N)C(=O)N[C@H]1CC(=O)NCCCC[C@@H](C(N)=O)NC(=O)[C@H](Cc2c[nH]c3ccccc23)NC(=O)[C@H](CCCNC(=N)N)NC(=O)[C@@H](Cc2ccccc2)NC(=O)[C@H](CCNC(=O)CN)NC1=O [compound 94, Ac-Arg-cyclo(Asp-Dab(Glycly)-D-Phe-Arg-Trp-Lys)-NH2]

pKi (hMC4-R [4]): 8.40
Structure (SMILES): CC(=O)N[C@H](CCCNC(=N)N)C(=O)N[C@H]1CCCNC(=O)CC[C@@H](C(N)=O)NC(=O)[C@H](Cc2c[nH]c3ccccc23)NC(=O)[C@H](CCCNC(=N)N)NC(=O)[C@@H](Cc2ccccc2)NC(=O)[C@H](Cc2c[nH]cn2)NC1=O [compound 98, Ac-D-Arg-cyclo(Orn-His-D-Phe-Arg-Trp-Glu)-NH2]

functional classification at MC4-R (agonist / partial agonist) (hMC4-R [2]): agonist
Structure (SMILES): CC(=O)N[C@@H](CCCNC(=N)N)C(=O)N[C@H]1CCCC(=O)NCC[C@@H](C(N)=O)NC(=O)[C@H](Cc2c[nH]c3ccccc23)NC(=O)[C@H](CCCNC(=N)N)NC(=O)[C@@H](Cc2ccccc2)NC(=O)[C@H](Cc2c[nH]cn2)NC1=O [compound 126, Ac-Arg-cyclo(hGlu-His-D-Phe-Arg-Trp-Dab)-NH2]

functional classification at MC4-R (agonist / partial agonist) (hMC4-R [2]): agonist
Structure (SMILES): CC(=O)N[C@@H](CCCNC(=N)N)C(=O)N[C@H]1CCCC(=O)NCC[C@@H](C(N)=O)NC(=O)[C@H](Cc2c[nH]c3ccccc23)NC(=O)[C@H](CCCNC(=N)N)NC(=O)[C@@H](Cc2ccccc2)NC(=O)[C@H](CCN)NC1=O [compound 127, Ac-Arg-cyclo(hGlu-Dab-D-Phe-Arg-Trp-Dab)-NH]

functional classification at MC4-R (agonist / partial agonist) (hMC4-R [2]): agonist
Structure (SMILES): CC(=O)N[C@@H](CCCNC(=N)N)C(=O)N[C@H]1CCNC(=O)CCC[C@@H](C(N)=O)NC(=O)[C@H](Cc2c[nH]c3ccccc23)NC(=O)[C@H](CCCNC(=N)N)NC(=O)[C@@H](Cc2ccccc2)NC(=O)[C@H](Cc2c[nH]cn2)NC1=O [compound 128, Ac-Arg-cyclo(Dab-His-D-Phe-Arg-Trp-hGlu)-NH2]

functional classification at MC4-R (agonist / partial agonist) (hMC4-R [2]): agonist
Structure (SMILES): CC(=O)N[C@@H](CCCNC(=N)N)C(=O)N[C@H]1CCNC(=O)CCC[C@@H](C(N)=O)NC(=O)[C@H](Cc2c[nH]c3ccccc23)NC(=O)[C@H](CCCNC(=N)N)NC(=O)[C@@H](Cc2ccccc2)NC(=O)[C@H](CCN)NC1=O [compound 129, Ac-Arg-cyclo(Dab-Dab-D-Phe-Arg-Trp-hGlu)-NH2]

pKi (hMC4-R [5]): 7.46
Structure (SMILES): CC(=O)N[C@@H](CCCNC(=N)N)C(=O)N[C@H]1CCNC(=O)CCC[C@@H](C(N)=O)NC(=O)[C@H](Cc2c[nH]c3ccccc23)NC(=O)[C@H](CCCNC(=N)N)NC(=O)[C@@H](Cc2ccccc2)NC(=O)[C@H](CCN)NC1=O [compound 136, Ac-Arg-cyclo(Dab-Dab-D-Phe-Arg-Trp-hGlu)-OH]

pKi (hMC4-R [5]): 8.05
Structure (SMILES): CC(=O)N[C@@H](CCCNC(=N)N)C(=O)N[C@H]1CC(=O)NCCCC[C@@H](C(N)=O)NC(=O)[C@H](Cc2c[nH]c3ccccc23)NC(=O)[C@H](CCCNC(=N)N)NC(=O)[C@@H](Cc2ccccc2)NC(=O)[C@H](CCN)NC1=O [compound 141, Ac-Cit-cyclo(Asp-Dab-D-Phe-Arg-Trp-Lys)-NH2]

Structure (SMILES): CC(=O)N[C@@H](CCCNC(=N)N)C(=O)N[C@H]1CCCNC(=O)CC[C@@H](C(N)=O)NC(=O)[C@H](Cc2c[nH]c3ccccc23)NC(=O)[C@H](CCCNC(=N)N)NC(=O)[C@@H](Cc2ccccc2)NC(=O)[C@H](CC(N)=O)NC1=O [compound 154, Ac-Arg-cyclo(Orn-Asn-D-Phe-Arg-Trp-Glu)-NH2]
induction of penile erection ([3]; subcutaneous): robustly induce a penile erection

Structure (SMILES): CC(=O)N[C@@H](CCCNC(=N)N)C(=O)N[C@H]1CCCCNC(=O)C[C@@H](C(N)=O)NC(=O)[C@H](Cc2c[nH]c3ccccc23)NC(=O)[C@H](CCCNC(=N)N)NC(=O)[C@@H](Cc2ccccc2)NC(=O)[C@H](CC(N)=O)NC1=O [compound 155, Ac-Arg-cyclo(Lys-Asn-D-Phe-Arg-Trp-Asp)-NH2] (HELM PEPTIDE1{[ac].R.K.N.[dF].R.W.D.[am]}$PEPTIDE1,PEPTIDE1,3:R3-8:R3$$$V2.0)
induction of penile erection ([3]; subcutaneous): robustly induce a penile erection
